Here are results for four molecules from patent publication US7476511B2, “Method of detecting and analyzing paclitaxel-mimetic compounds” (priority 2001, dated 2009).

Where two headings read alike, the source gives them in different places.

One may read the solubility as how much of the substance goes into solution per volume. Read a high solubility as a readily soluble substance.

The procedure of data set [1]:
Standard concentrated solutions were prepared and were kept at −20° C. in a dry atmosphere. The paclitaxel (from the National Cancer Institute, Bethesda, Md.) was measured spectroscopically at 273 nm following dilution in methanol, using an extinction coefficient of 1,700 M^−1 cm^−1 (Diaz, J. F. and Andreu, J. M.) ^3H-paclitaxel (4 Ci mmol^−1) was obtained from Moravek Biochemicals (Brea, Calif.), Docetaxel (Taxotere) was supplied by Rhône-Poulenc Rorer (Antony, France). […] The methyl ester of the C-13 side chain of paclitaxel was supplied by E. Baloglu and D. G. I. Kingston of the Virginia Polytechnic Institute (Blacksburg, Va.).

Data set [2] deals with paclitaxel binding site of microtubules. Put plainly: Competition test: displacement of Flutax-2 from microtubules, fluorescence anisotropy in microplate. Set-up: species or system bovine. The note with it: for displacement of Flutax-2 / inhibition of the anisotropy of microtubule Flutax-2 / equilibrium binding constant to microtubules (numerical analysis of displacement isotherms): 50 nM Flutax-2/50 nM microtubule sites; for equilibrium binding constant to microtubules (numerical analysis of displacement isotherms): 25° C., mean of several determinations; for equilibrium constant K, best fit of competition isotherm (FIG. 2): GAB-GDP buffer at 25° C., 50 nM Flutax-2, 50 nM sites. How it is done: Using Flutax-2 as a reference probe for the binding site to paclitaxel, the binding of other non-fluorescent ligands which displace Flutax-2 from the microtubules (see FIG. 1) can easily be measured by the changes in […] fluorescence properties in a competition test. The change of fluorescence anisotropy, which was analysed in 96-well plates with a microplate reader, was used. […] Baccatine III is equivalent to the taxane ring system, in which the group C-13 OH substitutes the paclitaxel side chain (see chemical structures in FIG. 2). The C-13 side chain has previously been considered as an essential determinant for recognition of paclitaxel.
Tubulin from bovine brain was purified and stored, and its concentration was measured as has been described (Andreu, J. M. et al.). Prior to its use it was balanced in 10 mM sodium phosphate, 1 mM EGTA, 0.1 mM GTP, 3.5M glycerol pH 6.8, with a Sephadex G-25 gravity column used cold, and it was centrifuged cold for 10 min at 50,000 in a TLA 100.4 rotor (Beckman) cold. The 50 μM tubulin was made 6 mM in MgCl2 (in other words, glycerol assembly buffer GAB, final pH 6.5) and 1 mM GTP, it was assembled in microtubules at 37° C. and these were gently cross-linked with 20 mM glutaraldehyde, the reaction being stopped with NaBH4 as has been described (Diaz, J. F. et al.). […] The cross-linked microtubules were dialysed against GAB-0.1 mM nucleotide (GTP or GDP) for more than 16 h, cold, in dialysis cassettes (Pierce) and were conserved frozen drop by drop in liquid nitrogen, or at 4° C. with 0.05% of sodium azide. This conservation method for the cross-linked microtubules by means of dialysis against a conservation and cryopreservation buffer is claimed in the present invention.
These competitive measurements were made with the polarisation plate reader. A solution of known concentrations of binding sites of microtubule and Flutax-2, both close to 50 nM, in GAB-GDP buffer, was freshly prepared starting from the concentrated reserves of cross-linked microtubules and Flutax-2. It was dispensed in aliquots of 200 μL (final volume) at room temperature in 96-well plates (Costar cat. No. 3599, the wells at the edges were not used). […] The ligands to test were added in small volumes of DMSO (concentration of final DMSO 2% v/v) in order to make the desired duplicated concentrations. A check was also made that the paclitaxel was not adsorbed onto the plate during the test, using ^3H-paclitaxel and a scintillation counter. The wells without protein and without Flutax-2 were included for calibration and background measurements respectively (see anisotropy measurements, above). The plates were stirred by rotation for 10 minutes and were measured twice within 30-90 minutes following balancing at 25° C. in the microplate reader. The anisotropy data of Flutax-2 was calculated with the evaluation software (BMG) and was traced against the total concentration of the competitor.
With the aim of measuring the binding affinity of a ligand (L) which displaces the reference ligand Flutax-2 from its microtubule binding site (S), unitary stoichiometry was assumed, with the fractional binding of Flutax-2 starting from the anisotropy being determined as [F]b/[S]0=[F]0(r−rmin)/[S]0(rmax−rmin) and the following expressions were applied K(F)=[SF]/[S] [F] [9] K(B)=[SB]/[S] [B] [10] [F]=[F]0−[SF] [11] [L]=[L]0−[SL] [12]

For data set [3] the test system is unchanged. Put plainly: Binding of Flutax-2 to cross-linked microtubules by fluorescence anisotropy. Set-up: species or system bovine. The note with it: 10 μM paclitaxel. How it is done:
The intensity of fluorescence of Flutax-2 changes very little with the binding to microtubules. There is a small change in the excitation maximum from 494 nm to 495 nm (isosbestic point at 500 nm ) and a blue shift in emission from 523 nm to 520 nm (not shown here; isosbestic point at 525 nm; Diaz, J. F. et al.). […] The excitation anisotropy spectrum of a 50 nM solution of microtubule sites/Flutax-2 was compared with the spectrum of a similar solution in which the binding sites were blocked by an excess of paclitaxel and of free Flutax-2. […] The anisotropy values determined for the 495 nm band (emission 520 nm; GAB buffer containing glycerol, 25° C.) were: free Flutax-2 (50 nm ), rmin=0.055; in the presence of microtubules blocked with paclitaxel, r=0.060; Flutax-2 specifically bound to the microtubules, rmax=0.29 (the last was determined by valuation of 50 nm Flutax-2 with growing concentrations of microtubules). These changes are consistent with a strong immobilisation of the fluorophore by the binding. […]
Tubulin from bovine brain was purified and stored, and its concentration was measured as has been described (Andreu, J. M. et al.). […]
Fluorescence spectra were obtained corrected with a Fluorolog-3-221 photon count instrument (Jobin Yvon-Spex, Longlumean, France), with an emission bandwidth of 5 nm and excitation of […] at 25° C. […] The multiple measurements of anisotropy were made with a PolarStar microplate reader (BMG Labtechnologies, Offenburg, Germany) at 25° C. The solutions were excited with 200 pulses of vertically polarised light (band-pass filter 485-P, 480-492 nm ) and the emission was simultaneously analysed with vertical and horizontal polarisation filters (band-pass 520-P, 515-550 nm ). […] The values of well blanks with microtubules and without Flutex-2 were subtracted from the values of fluorescence intensity (the blanks typically represented less than 4% of the measurement). […]
On the technique in general: In fluorescence polarisation assays a small probe gives low polarisation when free and higher when bound to something large.

Regarding `CC(=O)O[C@H]1C(=O)[C@@]2(C)[C@H]([C@H](OC(=O)c3ccccc3)[C@]3(O)C[C@H](O)C(C)=C1C3(C)C)[C@]1(OC(C)=O)CO[C@@H]1C[C@@H]2O` [baccatine III, Baccatine III], in data set [1] (pH 6.5), the “solubility” value is “soluble at the concentrations used”. In addition, in data set [2], the “displacement of Flutax-2 / inhibition of the anisotropy of microtubule Flutax-2” value is “entirely inhibited”; the “equilibrium binding constant to microtubules (numerical analysis of displacement isotherms)” value (from here on “equilibrium binding constant”) is 1.5±0.5)×10^5 M^−1; the “equilibrium constant K, best fit of competition isotherm (FIG. 2)” value (shortened to “equilibrium constant K, best fit”) amounted to 150000 M⁻¹. Also, in data set [2] (entire inhibition of anisotropy), the “total concentrations needed for inhibition relative to paclitaxel” value was “approximately 200 times”.
For `CC(=O)O[C@@]12CO[C@@H]1C[C@H](O)[C@@]1(C)C(=O)[C@H](O)C3=C(C)[C@@H](OC(=O)[C@H](O)[C@@H](NC(=O)OC(C)(C)C)c4ccccc4)C[C@@](O)([C@@H](OC(=O)c4ccccc4)[C@H]21)C3(C)C` [docetaxel, Docetaxel], in data set [2], the “equilibrium binding constant” value was “(6.0±2.3)×10^7 M^−1” and the “equilibrium constant K, best fit” value was found to be 8e+07 M⁻¹. Moreover, the “ratio of affinities of docetaxel to paclitaxel” value in data set [2] (on the basis of the individual experiments) is 2.7±0.3.
Molecule `COC(=O)C(O)C(NC(=O)c1ccccc1)c1ccccc1` (stereo not drawn) [methyl ester of the C-13 side chain, methyl ester of the C-13 side chain of paclitaxel] displayed a solubility in data set [1] not below 750 µM. Moreover, in data set [2], the “displacement of Flutax-2 / inhibition of the anisotropy of microtubule Flutax-2” value was “inactive” and the “equilibrium binding constant” value is recorded as < 10^3 M^−1. For the same molecule, the “K of simulated low affinity binding (line through data, FIG. 2)” value in data set [2] (simulation, data similar to controls) is 700 M⁻¹.
Turning to `CC(=O)O[C@H]1C(=O)[C@@]2(C)[C@H]([C@H](OC(=O)c3ccccc3)[C@]3(O)C[C@H](OC(=O)[C@H](O)[C@@H](NC(=O)c4ccccc4)c4ccccc4)C(C)=C1C3(C)C)[C@]1(OC(C)=O)CO[C@@H]1C[C@@H]2O` [paclitaxel], the “cancellation of the binding of Flutax-2 to microtubules” value in data set [3] is reported as “entirely annulled”. For the same molecule, in data set [2], the “equilibrium binding constant” value is recorded as “(3.7±1.5)×10^7 M^−1” and the “equilibrium constant K, best fit” value amounted to 3.2e+07 M⁻¹.
